The values that follow come from ChEMBL document CHEMBL1201862, “PubChem BioAssay data set” (2004).

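Protocol summary: plate cells (96-well), add compound at 5 concentrations, incubate 48 h, interpolate endpoints linearly. GI50 = concentration required for 50% inhibition of growth.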 Calls of active or inactive are those of the source. Cut-off read from the data, not from the text of the source: active = GI50 up to about 1.1 µM and inactive = higher. Where only a bound is given, the exact number is not on record here.

Common to all, as to experiment: NCI-60 cell line screen, 48 h
The test system of assay [1] is CAKI-1.
For assay [2], the system named is CCRF-CEM.
The subject of assay [3] is EKVX.
For assay [4], the system named is HCC 2998.
The subject of assay [5] is HCT-15.
Assay [6] relates to HT-29.
Assay [7] relates to IGROV-1.
For assay [8], the system named is K562.
Assay [9] deals with LOX IMVI.
Assay [10] concerns M14.
The test system of assay [11] is MDA-MB-231.
In assay [12] the test system is MOLT-4.
Assay [13] relates to Malme-3M.
In assay [14] the test system is NCI-H23.
Assay [15] concerns NCI/ADR-RES.
Assay [16] concerns OVCAR-5.
In assay [17] the test system is RXF 393.
The test system of assay [18] is SK-MEL-2.
Assay [19] has as its system SNB-19.
Assay [20] relates to UACC-257.

As for `CC1=NN(c2nc(N)nc(/C(C#N)=C\c3ccc([N+](=O)[O-])s3)n2)C(C)(C)C1`, the GI50 is 1.16 µM (inactive) in assay [1]; 0.0175 µM (active) in assay [2]; 0.817 µM (active) in assay [3]; 1.41 µM (inactive) in assay [4]; 0.108 µM in assay [5]; 0.265 µM (active) in assay [6]. Besides, the GI50 in [7] is 0.284 µM (active); in assay [8] it was < 0.0178 µM (active); in [9], 0.157 µM (active); in [10] it was 0.298 µM (active); in assay [11], 0.22 µM (active); in assay [12], 0.138 µM (active). In addition, the GI50 in assay [13] is 0.764 µM (active); in assay [14], 0.76 µM (active); in assay [15] it was 1.18 µM (inactive); in [16] it was 3.46 µM (inactive); in [17] it was 0.236 µM (active); in [18], 0.375 µM (active). Further, the GI50 in [19] is 1.66 µM (inactive); in assay [20], 0.211 µM (active).

`CC(Cl)(CCC(Cl)C(C)(C)Cl)C(=O)CBr` (stereo not given): the GI50 in assay [1] is 14 µM (inactive); in [2] it was 0.877 µM (active); in assay [3], 16.4 µM (inactive); in [4] it was 17.1 µM (inactive); in assay [5], 8.28 µM; in [6], 13.1 µM (inactive). In addition, the GI50 in assay [7] was 13.3 µM (inactive); in assay [8], 2.88 µM (inactive); in assay [9] it was 2.06 µM (inactive); in assay [10], 9.79 µM (inactive); in [11], 11.1 µM (inactive); in [12] it was 1.21 µM (inactive). Also, the GI50 is 12.3 µM (inactive) in [13]; 18.3 µM (inactive) in [14]; 22.8 µM (inactive) in [15]; 17.5 µM (inactive) in [16]; 2.88 µM (inactive) in assay [17]; 14.7 µM (inactive) in assay [18]. In addition, the figures for the GI50 in assay [19] and in [20] were 30.3 µM (inactive) and 12.4 µM (inactive), respectively.

Take `O=C1OC(=O)C(=C\c2ccc3c(c2)OCO3)/C1=C/c1ccc2c(c1)OCO2`: the GI50 in assay [1] was > 100 µM (inactive); in assay [2], 25.9 µM (inactive); in assay [3], > 100 µM (inactive); in assay [4] it was > 100 µM (inactive); in assay [5] it was above 100 µM; in assay [6], > 100 µM (inactive). Further, the GI50 in assay [7] is > 100 µM (inactive); in [8], > 79.8 µM (inactive); in assay [9] it was > 100 µM (inactive); in assay [10], > 100 µM (inactive); in assay [11] it was > 100 µM (inactive); in [12] it was 37.8 µM (inactive). Moreover, the GI50 is > 100 µM (inactive) in assay [13]; > 80.9 µM (inactive) in assay [14]; > 100 µM (inactive) in [15]; > 100 µM (inactive) in assay [16]; > 89.1 µM (inactive) in [17]; > 100 µM (inactive) in [18]. For the same compound, the GI50 in assay [19] and in assay [20] was > 100 µM (inactive) throughout.

Regarding `O=C(c1ccccc1)C(C(=O)c1ccccc1)c1nc2ccccc2sc1=O`, the GI50 in assay [1] was 13.1 µM (inactive); in assay [2], 6.24 µM (inactive); in assay [3] it was 16.1 µM (inactive); in [4], 23.7 µM (inactive); in assay [5], 7.48 µM; in [6], 17 µM (inactive). Besides, the GI50 in assay [7] was 8.11 µM (inactive); in assay [8], 12 µM (inactive); in assay [9], 9.68 µM (inactive); in [10], 15.8 µM (inactive); in assay [11], 11.6 µM (inactive); in assay [12], 8.09 µM (inactive). Also, the GI50 in assay [13] was 9.53 µM (inactive); in assay [14], 16.6 µM (inactive); in assay [15] it was 10.5 µM (inactive); in [16], > 25 µM (inactive); in assay [17], > 25 µM (inactive); in [18] it was 13.5 µM (inactive). For the same compound, the GI50 in assay [19] was 18.5 µM (inactive); in assay [20], > 25 µM (inactive).

Take `CC(C)(C)c1ccc(NS(=O)(=O)c2ccc(N)cc2)cc1`: the GI50 in assay [1] was 38.3 µM (inactive); in assay [2] it was 16.3 µM (inactive); in assay [3], 26.9 µM (inactive); in [4] it was 18.8 µM (inactive); in [5], 30.3 µM; in assay [6] it was 19 µM (inactive). The GI50 in assay [7] is 18.8 µM (inactive); in [8], 17.8 µM (inactive); in [9], 17.6 µM (inactive); in assay [10], 20.5 µM (inactive); in assay [11] it was 25.8 µM (inactive); in assay [12], 14.5 µM (inactive). The GI50 was 19.5 µM (inactive) in [13]; 26 µM (inactive) in assay [14]; 25.4 µM (inactive) in [15]; 31.5 µM (inactive) in [16]; 29.1 µM (inactive) in assay [17]; 19.5 µM (inactive) in assay [18]. Further, the GI50 is 35.7 µM (inactive) in [19] and 38.4 µM (inactive) in [20].

For the compound `C[C@@H]1CCC2[C@@H](C)C(=O)O[C@@H]3C4C[C@@H]1[C@@]23OO[C@@]4(C)O` (stereo not given in full), the GI50 was > 100 µM (inactive) in assay [1]; 54.5 µM (inactive) in assay [2]; 57.7 µM (inactive) in [3]; > 100 µM (inactive) in [4]; above 100 µM in assay [5]; > 100 µM (inactive) in assay [6]. Besides, the GI50 in [7] is 19.7 µM (inactive); in [8], > 100 µM (inactive); in assay [9], 23.1 µM (inactive); in assay [10], > 100 µM (inactive); in [11] it was > 100 µM (inactive); in [12], 72.1 µM (inactive). The GI50 in assay [13] is > 100 µM (inactive); in assay [14], 88.5 µM (inactive); in assay [15] it was > 100 µM (inactive); in assay [16], > 100 µM (inactive); in assay [17] it was 60.3 µM (inactive); in assay [18], > 100 µM (inactive). The GI50 in assay [19] and in assay [20] was > 100 µM (inactive) throughout.

Consider `Clc1ccc(/C(=C/c2ccccc2)Cn2ccnc2)cc1`, for which the GI50 in assay [1] was 19.3 µM (inactive); in [2], 17.5 µM (inactive); in assay [3], 31.9 µM (inactive); in assay [4] it was 42.7 µM (inactive); in assay [5] it was 20.2 µM; in assay [6], 29.6 µM (inactive). For the same compound, the GI50 in assay [7] was 17.9 µM (inactive); in assay [8], 5.42 µM (inactive); in [9], 19.2 µM (inactive); in [10] it was 21.9 µM (inactive); in assay [11], 30.2 µM (inactive); in [12] it was 13.6 µM (inactive). Besides, the GI50 in assay [13] is 8.97 µM (inactive); in assay [14] it was 38.2 µM (inactive); in assay [15], 20.4 µM (inactive); in [16], 44.9 µM (inactive); in assay [17], 14.6 µM (inactive); in [18], 14.6 µM (inactive). Besides, the GI50 in assay [19] was 12 µM (inactive); in assay [20], 30.5 µM (inactive).

For `COc1ccc(C[C@H]2NC[C@H](OC(C)=O)[C@H]2OC(C)=O)cc1`, the GI50 in assay [1] is 0.144 µM (active); in assay [2], 0.126 µM (active); in assay [3], 0.136 µM (active); in [4], 0.115 µM (active); in assay [5], 0.144 µM; in assay [6], 0.183 µM (active). Also, the GI50 in assay [7] is 0.15 µM (active); in assay [8], 0.221 µM (active); in assay [9], 0.067 µM (active); in [10] it was 0.0951 µM (active); in assay [11], 0.308 µM (active); in [12], 0.205 µM (active). Besides, the GI50 in [13] was 0.158 µM (active); in [14], 0.179 µM (active); in assay [15] it was 0.171 µM (active); in assay [16], 0.122 µM (active); in assay [17] it was 0.144 µM (active); in [18], 0.184 µM (active). For the same compound, the values for the GI50 in [19] and in assay [20] were 0.0935 µM (active) and 0.21 µM (active), respectively.

In the case of `NC(Cc1c2ccccc2cc2ccccc12)C(=O)O` (stereo not given), the GI50 in [1] was 62.2 µM (inactive); in [2], 94.8 µM (inactive); in assay [3], > 100 µM (inactive); in [4], > 100 µM (inactive); in assay [5], 68.1 µM; in assay [6] it was > 100 µM (inactive). Besides, the GI50 in assay [7] is 48.3 µM (inactive); in assay [8], > 100 µM (inactive); in assay [9], > 100 µM (inactive); in assay [10] it was > 100 µM (inactive); in assay [11], > 100 µM (inactive); in [12], 37 µM (inactive). Besides, the GI50 was 80.7 µM (inactive) in [13]; > 100 µM (inactive) in assay [14]; > 100 µM (inactive) in [15]; > 100 µM (inactive) in [16]; > 100 µM (inactive) in assay [17]; > 100 µM (inactive) in assay [18]. Moreover, the GI50 in assay [19] and in assay [20] was > 100 µM (inactive) in each case.

Regarding `Nc1ccc2c(=S)c3ccccc3[nH]c2c1`, the GI50 was 9.23 µM (inactive) in assay [1]; 18.8 µM (inactive) in assay [2]; 36.5 µM (inactive) in assay [3]; 53.5 µM (inactive) in assay [4]; 24.2 µM in assay [5]; 19.3 µM (inactive) in assay [6]. Further, the GI50 was 28 µM (inactive) in assay [7]; 16.1 µM (inactive) in [8]; 26.4 µM (inactive) in assay [9]; 20.2 µM (inactive) in assay [10]; 28.2 µM (inactive) in assay [11]; 18.7 µM (inactive) in assay [12]. The GI50 in assay [13] is 40.3 µM (inactive); in [14] it was 22.9 µM (inactive); in assay [15], 43.3 µM (inactive); in assay [16], > 61.2 µM (inactive); in assay [17], 39.6 µM (inactive); in [18], 51.9 µM (inactive). For the same compound, the GI50 is 41.6 µM (inactive) in assay [19] and 44.5 µM (inactive) in assay [20].
